Results as given in patent publication US20250057849A1, “ANTIVIRAL COMPOSITION COMPRISING NUCLEOSIDE ANALOGUES DERIVED FROM NUCLEIC ACID AND PHARMACEUTICALLY ACCEPTABLE SALT THEREOF” (CJ CheilJedang Corporation, priority 2021, published 2025).
Where two headings read alike, the source gives them in different places.

Legend:
[1] = tested on: PRRSV (NA type, VR-2332 strain); test: PRRSV infection inhibition in Marc-145 cells (immunofluorescence staining); type: cell-based, Porcine Reproductive and Respiratory Syndrome virus; settings: for IC50: Marc-145 cells, 100 TCID50/ml PRRSV, three days after treatment, read-out: PRRSV infection inhibition concentration IC50
[2] = tested on: PEDV (G1a type, SM98 strain); test: PEDV infection inhibition in Vero cells (PEDV detection kit on isolated RNA); type: cell-based, Porcine Epidemic Diarrhea virus; settings: for IC50: Vero cells, 200 TCID50/ml PEDV, after 2 days, read-out: PEDV infection inhibition concentration IC50
Protocol: The next day, PEDV (G1a type, SM98 strain) of 200 TCID50/ml and inosine, xanthosine and guanosine in the dialdehyde and acyclic diol forms were treated to the cells simultaneously, and after 2 days, using commercialized Viral gene (DNA/RNA) extraction kit (iNtRON, 101410754), RNA was isolated. For the isolated RNA, using commercialized PEDV detection kit (Mediandiagnostics, NS-PED-31), the antiviral efficacy of the materials was verified.

PCV2 = PCV2 infection inhibition in PK15 cells (qPCR); type: cell-based, Porcine Circovirus Type 2; settings: for IC50: PK15 cells, 200 TCID50/well PCV2, after 4 days, read-out: PCV2 infection inhibition concentration IC50
Protocol: For the isolated DNA, using PCV2-specific primers (F-[…] , R-[…] ) and realtime RT-qPCR experimental method (95° C., 30 seconds 1 cycle, 95° C., 20 seconds, 56° C., 60 seconds 40 cycles), the antiviral efficacy of the materials was verified.

PRV = test: microbe, parasite or virus in culture; type: cell-based, Porcine Rotavirus; settings: for IC50: read-out: PRV infection inhibition concentration IC50
[3] = tested on: Swine Influenza virus (SIV); test: organism not typed; type: cell-based; settings: for IC50: read-out: SIV infection inhibition concentration IC50
IBV = test: microbe, parasite or virus in culture; type: cell-based, Avian Infectious Bronchitis virus; settings: for IC50: read-out: IBV infection inhibition concentration IC50
NDV = test: microbe, parasite or virus in culture; type: cell-based, Avian Newcastle Disease virus; settings: for IC50: read-out: NDV infection inhibition concentration IC50
BVDV = BVDV infection inhibition in MDBK cells (RT-qPCR); type: cell-based, Bovine Viral Diarrhea virus; settings: for IC50: MDBK cells, 200 TCID50/well BVDV, after 4 days, read-out: BVDV infection inhibition concentration IC50
Protocol: The next day, BVDV of 200 TCID50/well and inosine, xanthosine and guanosine in the dialdehyde and acyclic diol forms were treated to the cells simultaneously, and after 4 days, using commercialized Viral gene (DNA/RNA) extraction kit (iNtRON, 101410754), RNA was isolated.
For the isolated RNA, using BVDV-specific primers (F-[…] , R-[…] ) and realtime RT-qPCR experimental method (94° C., 10 minutes 1 cycle, 94° C., 10 seconds, 53° C., 20 seconds, 72° C., 30 seconds 35 cycles), the antiviral efficacy of the materials was verified.

BRV = BRV infection inhibition in MDBK cells (RT-qPCR); type: cell-based, Bovine Rotavirus; settings: for IC50: MDBK cells, 200 TCID50/well BRV, after 4 days, read-out: BRV infection inhibition concentration IC50
Protocol: The next day, BRV of 200 TCID50/well and inosine, xanthosine and guanosine in the dialdehyde and acyclic diol forms were treated to the cells simultaneously, and after 4 days, using commercialized Viral gene (DNA/RNA) extraction kit (iNtRON, 101410754), RNA was isolated.
For the isolated RNA, using BRV-specific primers (F-[…] , R-[…] ) and realtime RT-qPCR experimental method (95° C., 10 minutes 1 cycle, 95° C., 15 seconds, 60° C., 15 seconds, 72° C., 20 seconds 40 cycles), the antiviral efficacy of the materials was confirmed.

CPV = CPV infection inhibition in MDCK cells (qPCR); type: cell-based, Canine Parvovirus; settings: for IC50: MDCK cells, 200 TCID50/well CPV, after 4 days, read-out: CPV infection inhibition concentration IC50 (Table 10)
Protocol: For the isolated DNA, using CPV-specific primers (F-[…] , R-[…] ) and realtime RT-qPCR experimental method (95° C., 5 minutes 1 cycle, 95° C., 10 seconds, 60° C., 30 seconds, 40 cycles), the antiviral efficacy of the materials was confirmed.

[4] = mouse, in vivo
[5] = tested on: Influenza virus (2009 pandemic strain, CA04); settings: for abnormal lesions due to fed materials (liver, stomach, spleen, kidney, heart, small intestine, large intestine): 250 mg/kg
PK15 cell line = test: Cytotoxicity, PK15 cell test; settings: read-out: CC50 (Table 3, PCV2); cytotoxicity
MDCK cell line = test: Cytotoxicity, MDCK cell tests; settings: cytotoxicity
MDBK cell line = test: Cytotoxicity, MDBK cell tests; settings: cytotoxicity
Marc-145 cell line = test: Cytotoxicity (WST-1 / DAPI staining), PRRSV test cells
[6] = Water solubility (stated); type: physicochemical
in vitro = settings: monkey
[7] = Cytotoxicity, PK15 cell test; settings: pig, PK15 cells
[8] = Cytotoxicity, MDCK cell tests; settings: dog, MDCK cells
[9] = Cytotoxicity, MDBK cell tests; settings: bovine, MDBK cells
PRRSV (NA strain) = test: PRRS virus challenge test using piglets
[10] = Cytotoxicity (WST-1 / DAPI staining), PRRSV test cells; settings: monkey, Marc-145 cells (monkey kidney)
[11] = mice, 100 MLD50 CA04, 250 mg/kg intragastric
[12] = autopsy at 2 weeks, 50 mg/kg/day oral

Structure (SMILES): Nc1nc2c(ncn2[C@@H](C=O)O[C@@H](C=O)CO)c(=O)[nH]1 [Dialdehyde-guanosine, dialdehyde form of guanosine]
- IC50 [1]: 40 µM
- PRRSV infection inhibition ([1]; at 40 μM): 50%
- PRRSV infection inhibition ([1]; at 100 μM): ≥ 90%
- IC50 [2]: 157 µM
- IC50 (PCV2): 96.6 µM
- IC50 (PRV): 177 µM
- IC50 ([3]; MDCK cells, 200 TCID50/well SIV, after 4 days): 171 µM
- IC50 (IBV; Vero cells, 200 TCID50/well IBV, after 4 days): 275 µM
- IC50 (NDV; Vero cells, 200 TCID50/well NDV, after 3 days): 1120 µM
- IC50 (BVDV): 2760 µM
- IC50 (BRV): 88.3 µM
- IC50 (CPV): 2060 µM
- CC50 (Vero cell line): > 6000 µM
- time when 50% of the remaining materials was measured (based on AUC values) ([4]; ip, 50 mg/kg): about 6 hours
- time when 50% of the remaining materials was measured (based on AUC values) ([4]; po, 250 mg/kg): about 9 hours
- amount of the virus remaining in the lung tissue (PCR) ([5]; mouse, in vivo): slightly lower
- clinical symptoms after SIV challenge ([5]; mouse, in vivo): very mild symptoms
- lung lesions at autopsy ([5]; mouse, in vivo): mild lung lesions
- survival rate on the 7th day ([5]; mouse, in vivo): 80%
- survival rate predicted on the 8th day based on all data up to the 7th day ([5]; mouse, in vivo): 60%
- weight loss after SIV challenge ([5]; mouse, in vivo): very slight
- abnormal lesions due to fed materials (liver, stomach, spleen, kidney, heart, small intestine, large intestine) ([5]; mouse, in vivo): not observed
- CC50 (PK15 cell line): > 6000 µM
- CC50 (MDCK cell line; read-out: CC50 (Table 5, SIV)): > 6000 µM
- CC50 (MDCK cell line; read-out: CC50 (Table 10, CPV)): > 6000 µM
- CC50 (MDBK cell line; read-out: CC50 (Table 8, BVDV)): > 6000 µM
- CC50 (MDBK cell line; read-out: CC50 (Table 9, BRV)): > 6000 µM
- CC50 (Marc-145 cell line; read-out: CC50 (Table 1, PRRSV), cytotoxicity, WST-1): > 6000 µM
- cytotoxicity by DAPI staining (Marc-145 cell line; up to 1000 μM): no cytotoxicity was observed

Structure (SMILES): O=C[C@@H](CO)O[C@H](C=O)n1cnc2c(=O)[nH]c(=O)[nH]c21 [Dialdehyde-xanthosine, dialdehyde form of xanthosine]
- SI (selectivity index), PRRSV ([1]; CC50/IC50): >133.3
- IC50 [1]: 75 µM
- SI (selectivity index), PEDV ([2]; CC50/IC50): >25.1
- IC50 ([2]; Porcine epidemic diarrhea virus, 48 h): 398 µM
- SI (selectivity index), PCV2 (PCV2; CC50/IC50): >23
- IC50 (PCV2; Porcine circovirus 2, PK-15, 96 h): 436 µM
- SI (selectivity index), PRV (PRV; CC50/IC50): >110.9
- IC50 (PRV; Rotavirus C, Vero, 72 h): ≤ 100 µM
- IC50 (PRV): 90.2 µM
- SI (selectivity index), SIV ([3]; CC50/IC50): >13.4
- IC50 ([3]; MDCK, 96 h): 748 µM
- IC50 (IBV; Avian coronavirus, Vero, 96 h): 226 µM
- SI (selectivity index), IBV (IBV; CC50/IC50): >44.3
- SI (selectivity index), NDV (NDV; CC50/IC50): >19
- IC50 (NDV; avian paramyxovirus 1, Vero, 72 h): 526 µM
- IC50 (BVDV; Bovine viral diarrhea virus isolates and strains, 96 h): 97.8 µM
- SI (selectivity index), BVDV (BVDV; CC50/IC50): >102.2
- SI (selectivity index), BRV (BRV; CC50/IC50): >198.1
- IC50 (BRV; Rotavirus A, 96 h): 50.5 µM
- SI (selectivity index), CPV (CPV; CC50/IC50): >45.2
- IC50 (CPV; Canine parvovirus, 96 h): 221 µM
- water solubility [6]: slightly high
- CC50 (Vero cell line; monkey): > 10000 µM
- half-life tendency compared with guanosine in the dialdehyde form [4]: shorter
- time when 50% of the remaining materials was measured (based on AUC values) ([4]; ip, 50 mg/kg): about 6 hours
- time when 50% of the remaining materials was measured (based on AUC values) ([4]; po, 250 mg/kg): about 6 hours
- survival rate on the 7th day [5, 11]: 100%
- survival rate predicted on the 8th day based on all data up to the 7th day [5, 11]: 100%
- amount of the virus remaining in the lung tissue (PCR) ([5]; mouse, in vivo): lowest virus titer
- clinical symptoms after SIV challenge ([5]; mouse, in vivo): very mild symptoms
- lung lesions at autopsy ([5]; mouse, in vivo): mild lung lesions
- weight loss after SIV challenge ([5]; mouse, in vivo): very slight
- abnormal lesions due to fed materials (liver, stomach, spleen, kidney, heart, small intestine, large intestine) ([5]; mouse, in vivo): not observed
- CC50 (in vitro): > 10000 µM
- CC50 [7]: > 10000 µM
- CC50 [8]: > 10000 µM
- CC50 (MDCK cell line; read-out: CC50 (Table 10, CPV)): > 10000 µM
- CC50 [9]: > 10000 µM
- CC50 (MDBK cell line; read-out: CC50 (Table 9, BRV)): > 10000 µM
- weight gain after PRRSV infection (PRRSV (NA strain); 50 mg/kg/day oral twice/day, 14 days): no delay in weight gain
- PRRS virus in lung by immunohistochemistry (PRRSV (NA strain); [12]): only a very small amount of viruses were detected
- interstitial pneumonia lesions, visual observation of lung (PRRSV (NA strain); [12]): relatively intact lung
- virus titer in lung tissue (PRRSV (NA strain); [12]): reduced compared to the positive control group
- CC50 [10]: > 10000 µM
